“Also recorded” adds a separate entry of the source.
Columns and labels:
[1] = test system: caerulein-evoked acute pancreatitis; assay: Caerulein-induced acute pancreatitis mouse model; assay type: in vivo; settings: 10 mg/kg i.p., 30 min before caerulein
Procedure: C57BL/6J male mice 8–10 weeks of age were subjected to acute pancreatitis by intraperitoneal injections of supramaximal doses of caerulein (50 μg/kg) every hour for a total of 6 h, as previously described in[61]. Control animals received 25% DMSO-saline solution by intraperitoneal injection every hour for 6 h. Compound 16-8 was dissolved in this vehicle (10 mg/kg) and injected i.p. 30 min prior to the first injection of caerulein. Animals were sacrificed 1 h after the last injection. Blood was collected and pancreatic tissue was promptly isolated, weighed for determination of pancreas wet weight/body weight ratio. Samples of tissues were fixed overnight in 10% neutral-buffered formalin, paraffin embedded and H&E-stained, or pancreatic tissue was quickly frozen and assessed for myeloperoxidase (MPO) activity. Serum amylase, MPO and histologic evaluation were conducted as described previously. Assessment of nocifensive behavior[8]: Mice were housed in individual cages and video-recorded during the entire experiment. Two mice at a time were observed. Linear movement was measured as one event when mice passed through the median plane of the cage. Analysis began immediately after the first caerulein/vehicle injection and continued until the end of the experiment. Results were expressed as the sum of the movement events spanning the 6 h time-period following the first injection.

[2] = target: TRPV4 (Rattus norvegicus, UniProt Q9ERZ8); assay: Ca++ imaging in primary astrocytes, GSK101 stimulation; assay type: cell-based; settings: GSK101 5 nM
TRPV4, sequence (Q9ERZ8 whole entry): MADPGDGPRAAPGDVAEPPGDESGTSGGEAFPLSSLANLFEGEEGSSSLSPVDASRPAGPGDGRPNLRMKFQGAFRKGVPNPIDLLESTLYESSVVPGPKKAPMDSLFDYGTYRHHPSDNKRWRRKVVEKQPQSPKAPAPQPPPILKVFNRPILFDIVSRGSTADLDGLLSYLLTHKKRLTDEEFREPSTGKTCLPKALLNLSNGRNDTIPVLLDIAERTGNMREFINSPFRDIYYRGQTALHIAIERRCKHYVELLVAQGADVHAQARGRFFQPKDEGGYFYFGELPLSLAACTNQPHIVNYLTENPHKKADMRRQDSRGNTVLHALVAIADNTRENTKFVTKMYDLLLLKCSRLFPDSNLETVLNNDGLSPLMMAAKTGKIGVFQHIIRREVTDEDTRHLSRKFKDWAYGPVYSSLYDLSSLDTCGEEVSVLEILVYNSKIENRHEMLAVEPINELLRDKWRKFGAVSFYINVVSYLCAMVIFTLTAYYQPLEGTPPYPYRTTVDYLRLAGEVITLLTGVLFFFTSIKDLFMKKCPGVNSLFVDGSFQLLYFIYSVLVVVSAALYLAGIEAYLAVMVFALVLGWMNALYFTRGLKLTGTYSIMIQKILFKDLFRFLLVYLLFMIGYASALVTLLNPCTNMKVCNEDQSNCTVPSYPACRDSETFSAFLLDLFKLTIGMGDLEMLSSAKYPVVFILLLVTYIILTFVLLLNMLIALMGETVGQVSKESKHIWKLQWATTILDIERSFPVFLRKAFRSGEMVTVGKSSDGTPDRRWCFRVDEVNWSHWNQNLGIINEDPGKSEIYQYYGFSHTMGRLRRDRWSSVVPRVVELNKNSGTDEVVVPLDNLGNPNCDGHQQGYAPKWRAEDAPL
Procedure: Figure 4 Compound 16-8 inhibits TRPV4 in I˚ cells more potently than GSK205. […] Inset: Chondrocytes responding to activation with GSK101, fura-2 Ca^++ imaging; right-hand image taken at 5 sec after GSK101 application. […] (B) I˚ astrocytes (rat); dose-response comparison between 16-8 and GSK205 in response to 5 nM GSK101. Inset: Astrocytes responding to activation with GSK101; right-hand image taken at 5 sec after GSK101 application (mean ± SEM, n = 5 independent expts, n ≥ 200 cells/expt; *p < 0.05, t-test).
Astrocyte cultures were conducted following established protocols. Astrocytes were prepared from Sprague Dawley rat embryos (E18). Briefly, the isolated cortices were minced, and then incubated with trypsin and DNase. Dissociated cells were suspended in Dulbeccco’s Modified Eagle’s Medium (DMEM) supplemented with 10% fetal calf serum and penicillin/streptomycin (100 U/ml and 100 μg/ml, respectively). Thereafter, cell suspensions were plated in 75 cm^2 tissue culture flasks (10 × 10^6 cells/flask) which were pre-coated with poly-L-lysine (10 μg/ml). The cells were maintained in a 10%CO2 incubator at 37 °C.

Structure (SMILES): CN(CCc1ccc(Nc2nc(-c3ccccc3)cs2)cc1)Cc1ccccc1 [16-8]
- histopathological score for pancreas inflammation [1]: significantly reduced; also recorded: significant reduction
- myelo-peroxidase (MPO) [1]: significantly reduced
- pain behavior (nocifensive behavior, 6 h test period) [1]: virtually eliminated; also recorded: significantly reduced
- pancreatic edema [1]: virtually eliminated
- potency vs GSK205, dose-response of peak ∆Ca++ [2]: significantly increased potency
